Data taken from patent US8541588B2, “Sulfonamide derivatives” (Pfizer Limited, priority 2009, dated 2013).

Target: T1, Nav1.7 (or SCN9A) channel; HEK cells stably transfected with hSCN9A (Homo sapiens, UniProt Q15858)
T1 construct: expressed in transfected cells
Test: Nav1.7 block, PatchXpress 7000 automated whole-cell voltage clamp, estimated IC50 (EIC50)
Format: cell-based
Details: estimated IC50, PatchXpress platform

[1] = hSCN9A HEK cells, Examples 283-814
[2] = hSCN9A HEK cells, Examples 815-1040
[3] = hSCN9A HEK cells held at V1/2 of inactivation

T1 sequence (Q15858 whole entry): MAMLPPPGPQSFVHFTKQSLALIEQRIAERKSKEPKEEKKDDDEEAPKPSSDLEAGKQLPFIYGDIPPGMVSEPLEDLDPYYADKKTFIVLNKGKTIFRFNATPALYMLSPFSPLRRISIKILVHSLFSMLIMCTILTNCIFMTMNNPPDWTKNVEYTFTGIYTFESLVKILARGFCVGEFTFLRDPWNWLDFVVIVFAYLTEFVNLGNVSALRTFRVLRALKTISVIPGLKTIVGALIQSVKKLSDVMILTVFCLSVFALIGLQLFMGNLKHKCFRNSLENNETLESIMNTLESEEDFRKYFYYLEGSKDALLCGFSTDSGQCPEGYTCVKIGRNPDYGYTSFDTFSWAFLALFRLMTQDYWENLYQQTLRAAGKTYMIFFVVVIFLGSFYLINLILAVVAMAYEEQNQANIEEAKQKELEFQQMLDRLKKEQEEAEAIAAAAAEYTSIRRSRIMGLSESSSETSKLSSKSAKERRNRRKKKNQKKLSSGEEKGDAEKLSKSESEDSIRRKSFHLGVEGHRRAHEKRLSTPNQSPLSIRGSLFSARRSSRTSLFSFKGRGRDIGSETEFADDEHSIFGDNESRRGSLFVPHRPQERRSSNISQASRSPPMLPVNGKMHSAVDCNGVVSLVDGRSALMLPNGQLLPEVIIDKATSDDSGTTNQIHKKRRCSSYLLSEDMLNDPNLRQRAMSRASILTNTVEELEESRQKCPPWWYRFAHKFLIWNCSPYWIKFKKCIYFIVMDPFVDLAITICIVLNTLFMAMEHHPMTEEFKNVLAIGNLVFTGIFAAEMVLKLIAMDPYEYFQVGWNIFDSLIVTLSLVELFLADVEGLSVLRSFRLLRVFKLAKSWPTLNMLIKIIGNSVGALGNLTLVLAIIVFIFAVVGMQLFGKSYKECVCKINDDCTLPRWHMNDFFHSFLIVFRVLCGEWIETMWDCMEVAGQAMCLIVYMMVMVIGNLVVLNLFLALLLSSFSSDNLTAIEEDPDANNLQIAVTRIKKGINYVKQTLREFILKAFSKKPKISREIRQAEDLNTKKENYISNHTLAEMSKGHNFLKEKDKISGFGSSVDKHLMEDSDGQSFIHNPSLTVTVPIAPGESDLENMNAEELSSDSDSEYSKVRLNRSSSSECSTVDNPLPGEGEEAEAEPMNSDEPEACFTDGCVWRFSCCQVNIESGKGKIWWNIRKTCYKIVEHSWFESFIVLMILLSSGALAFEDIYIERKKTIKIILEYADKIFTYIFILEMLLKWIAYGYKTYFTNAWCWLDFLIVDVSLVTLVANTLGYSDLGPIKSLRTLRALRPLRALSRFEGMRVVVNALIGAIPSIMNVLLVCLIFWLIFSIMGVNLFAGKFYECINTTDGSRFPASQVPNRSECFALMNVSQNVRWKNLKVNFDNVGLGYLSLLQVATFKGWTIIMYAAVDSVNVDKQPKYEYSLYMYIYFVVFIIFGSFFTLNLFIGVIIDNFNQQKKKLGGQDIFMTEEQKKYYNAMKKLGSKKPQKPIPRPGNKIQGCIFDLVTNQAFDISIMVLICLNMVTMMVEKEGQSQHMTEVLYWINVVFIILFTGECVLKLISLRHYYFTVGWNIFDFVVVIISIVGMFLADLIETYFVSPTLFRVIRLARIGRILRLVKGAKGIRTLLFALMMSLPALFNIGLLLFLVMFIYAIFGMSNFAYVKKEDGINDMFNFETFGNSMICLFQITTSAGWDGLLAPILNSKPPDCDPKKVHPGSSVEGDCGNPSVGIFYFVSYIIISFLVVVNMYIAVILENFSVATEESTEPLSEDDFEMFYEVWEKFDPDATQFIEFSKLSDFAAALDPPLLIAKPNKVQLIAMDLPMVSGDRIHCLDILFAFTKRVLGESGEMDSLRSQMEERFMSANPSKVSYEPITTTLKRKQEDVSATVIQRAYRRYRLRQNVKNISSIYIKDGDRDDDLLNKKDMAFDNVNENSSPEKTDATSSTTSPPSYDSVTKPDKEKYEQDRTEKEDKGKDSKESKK

IC50 [1] [µM]	IC50 [3] [µM]	Structure (SMILES)	other results
0.053	–	CN1CCC(c2cc(Cl)ccc2Oc2cc(F)c(S(=O)(=O)Nc3ncns3)cc2F)CC1 [Example 734, 4-[4-chloro-2-(1-methylpiperidin-4-yl)phenoxy]-2,5-difluoro-N-1,2,4-thiadiazol-5-ylbenzenesulfonamide]	–
–	–	O=S(=O)(Nc1ncns1)c1cc(Cl)c(Oc2ccc(Cl)cc2-c2ccnnc2)cc1F [Example 910, 5-chloro-4-(4-chloro-2-pyridazin-4-ylphenoxy)-2-fluoro-N-1,2,4-thiadiazol-5-ylbenzenesulfonamide]	IC50 [2]: 0.012 µM
–	3.86	O=S(=O)(Nc1nccs1)c1ccc(Oc2cc(Cc3ccc(Cl)cc3)n[nH]2)c(F)c1 [Example 243, 4-(3-(4-chlorobenzyl)-1H-pyrazol-5-yloxy)-3-fluoro-N-(thiazol-2-yl)benzenesulfonamide]	–
2.6	–	CCn1nc(-c2ccc(Oc3ccc(S(=O)(=O)Nc4nccs4)cc3C#N)cc2)cc1C1CC1 [Example 372, 3-cyano-4-[4-(5-cyclopropyl-1-ethyl-1H-pyrazol-3-yl)phenoxy]-N-1,3-thiazol-2-ylbenzenesulfonamide]	–
–	–	CCOc1n[nH]cc1-c1cc(Cl)ccc1Oc1cc(F)c(S(=O)(=O)Nc2cscn2)cc1F [Example 984, 4-[4-chloro-2-(3-ethoxy-1H-pyrazol-4-yl)phenoxy]-2,5-difluoro-N-1,3-thiazol-4-ylbenzenesulfonamide]	IC50 [2]: 0.56 µM
1.2	–	Cc1nc(NS(=O)(=O)c2ccc(Oc3ccccc3-c3ccccc3)c(C#N)c2)sc1F [Example 712, 4-(biphenyl-2-yloxy)-3-cyano-N-(5-fluoro-4-methyl-1,3-thiazol-2-yl)benzenesulfonamide]	–
3.3	–	N#Cc1cc(S(=O)(=O)Nc2nccs2)ccc1Oc1ccc(-n2cccn2)cc1 [Example 469, 3-cyano-4-[4-(1H-pyrazol-1-yl)phenoxy]-N-1,3-thiazol-2-ylbenzenesulfonamide]	–
0.21	–	Cn1nc(C(F)(F)F)cc1-c1ccc(F)c(Oc2ccc(S(=O)(=O)Nc3nccs3)cc2C#N)c1 [Example 779, 3-cyano-4-{2-fluoro-5-[1-methyl-3-(trifluoromethyl)-1H-pyrazol-5-yl]phenoxy}-N-1,3-thiazol-2-ylbenzenesulfonamide]	–
–	–	O=S(=O)(Nc1ncns1)c1cc(F)c(Oc2ccc(OC(F)F)cc2-c2cn[nH]c2)cc1F [Example 837, 4-[4-(difluoromethoxy)-2-(1H-pyrazol-4-yl)phenoxy]-2,5-difluoro-N-1,2,4-thiadiazol-5-ylbenzenesulfonamide]	IC50 [2]: 0.0058 µM
–	–	O=S(=O)(Nc1ncns1)c1cc(F)c(Oc2ccc(F)cc2-c2ccnnc2)cc1F [Example 931, 2,5-difluoro-4-(4-fluoro-2-pyridazin-4-ylphenoxy)-N-1,2,4-thiadiazol-5-ylbenzenesulfonamide]	IC50 [2]: 0.14 µM
–	0.1	Cn1nccc1-c1ccccc1Oc1ccc(S(=O)(=O)Nc2nccs2)cc1F [Example 3, 3-fluoro-4-(2-(1-methyl-1H-pyrazol-5-yl)phenoxy)-N-(thiazol-2-yl)benzenesulfonamide]	–
–	0.57	O=S(=O)(Nc1nccs1)c1ccc(Oc2cc(C(F)(F)F)nn2-c2cc(F)ccc2F)c(F)c1 [Example 228, 4-[2-(2,5-difluoro-phenyl)-5-trifluoromethyl-2H-pyrazol-3-yloxy]-3-fluoro-N-thiazol-2-yl-benzenesulfonamide]	–
–	0.43	N#Cc1ccc(-c2ccccc2Oc2ccc(S(=O)(=O)Nc3ncns3)cc2C#N)cc1 [Example 11, 3-cyano-4-[(4′-cyanobiphenyl-2-yl)oxy]-N-1,2,4-thiadiazol-5-ylbenzenesulfonamide]	–
–	1.04	CC(C)(C)n1nc(C(F)(F)F)cc1-c1ccc(Oc2ccc(S(=O)(=O)Nc3nccs3)cc2F)cc1 [Example 245, 4-[4-(2-tert-butyl-5-trifluoromethyl-2H-pyrazol-3-yl)-phenoxy]-3-fluoro-N-thiazol-2-yl-benzenesulfonamide]	–
